Experimental data as given in ChEMBL document CHEMBL1201862, “PubChem BioAssay data set” (2004).
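48-hour exposure; five concentrations; linearly interpolated endpoints. GI50: concentration for 50% inhibition of growth.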 Active and inactive are the calls of the source. Rule as the data show it: active = GI50 up to about 1.1 µM and inactive = higher.

Key:
Assay in all cases: inhibition of tumour cell growth, NCI panel, 48 h
A498 = system: A498
CCRF-CEM = system: CCRF-CEM
HCC 2998 = system: HCC 2998
HCT-116 = system: HCT-116
HL-60 = system: HL-60
HOP-62 = system: HOP-62
K562 = system: K562
NCI-H23 = system: NCI-H23
NCI-H522 = system: NCI-H522
NCI/ADR-RES = system: NCI/ADR-RES
OVCAR-3 = system: OVCAR-3
OVCAR-5 = system: OVCAR-5
RXF 393 = system: RXF 393
SF-268 = system: SF-268
SF-295 = system: SF-295
SK-MEL-5 = system: SK-MEL-5
SK-OV-3 = system: SK-OV-3
SNB-19 = system: SNB-19
SNB-75 = system: SNB-75
UACC-62 = system: UACC-62

Measured: GI50

O=C(O)CCCCCCCCC(=O)O [SEBACIC ACID]
inactive: A498 > 23.2 µM | CCRF-CEM 300 µM | HCC 2998 50 µM | HCT-116 > 500 µM | HL-60 316 µM | HOP-62 > 50 µM | K562 > 500 µM | NCI-H23 79.3 µM | NCI-H522 > 500 µM | NCI/ADR-RES > 79.3 µM | OVCAR-3 79.3 µM | OVCAR-5 > 500 µM | RXF 393 50 µM | SF-268 > 500 µM | SF-295 79.3 µM | SK-MEL-5 > 23.2 µM | SK-OV-3 50 µM | SNB-19 108 µM | SNB-75 > 79.3 µM | UACC-62 > 79.3 µM
